Assay results taken from ChEMBL document CHEMBL1201862, “PubChem BioAssay data set” (2004).
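Briefly, cells in 96-well plates were exposed to five compound concentrations for 48 h, and endpoints were estimated by linear interpolation. GI50 is the concentration that inhibits growth by half.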 Activity calls are given as the source filed them. Rule as the data show it: active = GI50 up to about 1.1 µM and inactive = higher.

Key:
Assay in all cases: growth of human tumour cells (NCI), 48 h
[1] = system: 786-0
[2] = system: A498
[3] = system: A549
[4] = system: ACHN
[5] = system: CAKI-1
[6] = system: CCRF-CEM
[7] = system: COLO 205
[8] = system: DLD-1
[9] = system: DMS-114
[10] = system: DMS-273
[11] = system: HCC 2998
[12] = system: HCT-116
[13] = system: HCT-15
[14] = system: HL-60
[15] = system: HOP-18
[16] = system: HOP-62
[17] = system: IGROV-1
[18] = system: K562
[19] = system: KM-20L2
[20] = system: KM12
[21] = system: LXFL 529
[22] = system: M14
[23] = system: M19-MEL
[24] = system: MOLT-4
[25] = system: Malme-3M
[26] = system: NCI-H226
[27] = system: NCI-H460
[28] = system: NCI-H522
[29] = system: OVCAR-3
[30] = system: OVCAR-4
[31] = system: OVCAR-8
[32] = system: RPMI-8226
[33] = system: RXF 393
[34] = system: SF-268
[35] = system: SF-539
[36] = system: SK-MEL-28
[37] = system: SK-MEL-2
[38] = system: SK-MEL-5
[39] = system: SK-OV-3
[40] = system: SN12C
[41] = system: SNB-19
[42] = system: SNB-75
[43] = system: SNB-78
[44] = system: SR
[45] = system: SW-620
[46] = system: TK-10
[47] = system: U-251
[48] = system: UACC-257
[49] = system: UACC-62
[50] = system: UO-31
[51] = system: EKVX
[52] = system: HOP-92
[53] = system: HT-29
[54] = system: LOX IMVI
[55] = system: NCI-H23
[56] = system: OVCAR-5
[57] = system: SF-295
[58] = system: XF498

Measured: GI50

C=CCC12CC(=O)CCC1CC(=O)C2 (stereo not drawn)
> 100 µM: [13]
inactive: [1] > 100 µM | [2] > 100 µM | [3] > 100 µM | [4] > 100 µM | [5] > 100 µM | [6] > 100 µM | [7] > 100 µM | [8] > 100 µM | [9] > 100 µM | [10] > 100 µM | [11] > 100 µM | [12] > 100 µM | [14] > 100 µM | [15] > 100 µM | [16] > 100 µM | [17] > 100 µM | [18] > 100 µM | [19] > 100 µM | [20] > 100 µM | [21] > 100 µM | [22] > 100 µM | [23] > 100 µM | [24] > 100 µM | [25] > 100 µM | [26] > 100 µM | [27] > 100 µM | [28] > 100 µM | [29] > 100 µM | [30] > 100 µM | [31] > 100 µM | [32] > 100 µM | [33] > 100 µM | [34] > 100 µM | [35] > 100 µM | [36] > 100 µM | [37] > 100 µM | [38] > 100 µM | [39] > 100 µM | [40] > 100 µM | [41] > 100 µM | [42] > 100 µM | [43] > 100 µM | [44] > 100 µM | [45] > 100 µM | [46] > 100 µM | [47] > 100 µM | [48] > 100 µM | [49] > 100 µM | [50] > 100 µM

CN1C(=O)CN2C(Cl)(Cl)C2(c2ccccc2F)c2cc([N+](=O)[O-])ccc21 (stereo not drawn)
41.4 µM: [13]
inactive: [4] 41.5 µM | [5] > 100 µM | [6] 29 µM | [7] 52.1 µM | [8] 35.1 µM | [9] 42.8 µM | [10] 39.4 µM | [51] 30.4 µM | [11] 22.7 µM | [12] 31.7 µM | [16] > 100 µM | [52] 19.3 µM | [53] 39.1 µM | [17] 63.8 µM | [18] 36.8 µM | [19] 26.7 µM | [20] 38.7 µM | [54] 35.7 µM | [21] 58.1 µM | [22] > 100 µM | [23] 65.6 µM | [24] 17.3 µM | [25] 18.4 µM | [26] 16.2 µM | [55] 76 µM | [27] 33.2 µM | [28] > 100 µM | [29] > 100 µM | [30] > 100 µM | [56] > 100 µM | [31] > 100 µM | [32] 40.8 µM | [33] 14.6 µM | [34] 51.1 µM | [57] 80.4 µM | [36] > 100 µM | [37] 38.2 µM | [38] 26.8 µM | [39] > 10 µM | [40] 25.2 µM | [42] 17.5 µM | [44] 33 µM | [45] 69 µM | [46] 60.7 µM | [47] 57.1 µM | [48] 64.4 µM | [49] 28.6 µM | [50] 42.7 µM

CC1=C(c2ccccc2)C(c2ccccc2)=C(c2ccccc2)C2(c3ccccc3)C(=O)C(C)CN12 (stereo not drawn)
inactive: [1] 30.6 µM | [2] > 100 µM | [3] 57.1 µM | [4] 41.4 µM | [5] 57.3 µM | [8] 61.8 µM | [10] 46.1 µM | [51] 41.4 µM | [11] > 100 µM | [12] 45.3 µM | [16] > 100 µM | [53] 42.3 µM | [17] 99.5 µM | [18] > 10 µM | [19] 45.5 µM | [20] 43.1 µM | [54] 58.7 µM | [21] 43.8 µM | [22] 51.6 µM | [23] 58.5 µM | [24] 16.6 µM | [25] > 100 µM | [26] 21 µM | [27] 32.7 µM | [28] 15.7 µM | [29] 34.7 µM | [30] 20.8 µM | [56] 49.9 µM | [31] 17.9 µM | [32] 29.2 µM | [33] 26.1 µM | [34] > 100 µM | [57] 13.3 µM | [35] 31.5 µM | [36] > 100 µM | [37] 95.7 µM | [38] 59 µM | [39] > 100 µM | [40] 41.7 µM | [41] 26.5 µM | [42] 19.4 µM | [44] 26.4 µM | [45] 79.1 µM | [47] 30.3 µM | [48] 30.5 µM | [49] 10.3 µM | [50] > 100 µM | [58] 16.9 µM
61.2 µM: [13]

COc1cc(C2c3cc4c(cc3[C@@H](Nc3ccc(C(=O)O)cc3)C3COC(=O)[C@H]23)OCO4)cc(OC)c1O (stereo partly drawn)
inactive: [2] 18.7 µM | [3] 18.3 µM | [4] 31.6 µM | [5] 4.98 µM | [6] 2.78 µM | [10] 7.16 µM | [51] 27.4 µM | [11] 28.4 µM | [12] 19.4 µM | [14] 2.49 µM | [16] 8.15 µM | [52] 2.46 µM | [53] 22 µM | [17] 17.8 µM | [20] 21.6 µM | [54] 4.41 µM | [21] 11 µM | [22] 20.7 µM | [23] 15.7 µM | [25] 13.7 µM | [26] 3.72 µM | [55] 10.6 µM | [27] 2.39 µM | [29] 20 µM | [30] 20.2 µM | [31] 14.6 µM | [33] 9.35 µM | [34] 14.6 µM | [57] 14.1 µM | [35] 6.56 µM | [36] 27.5 µM | [37] 30.4 µM | [38] 12.1 µM | [40] 31.7 µM | [41] 6.14 µM | [42] 13.2 µM | [43] 10.7 µM | [46] 27.8 µM | [48] 27.2 µM | [49] 10.6 µM | [50] 22.5 µM
13.4 µM: [13]
active: [24] 0.721 µM

Cn1c2c(c3ccccc31)CCN(CCN1CCN(c3cccc(Cl)c3)CC1)C2=O
inactive: [1] > 100 µM | [2] > 100 µM | [3] > 100 µM | [4] > 100 µM | [6] > 100 µM | [7] 40.7 µM | [8] 20.7 µM | [9] 37.4 µM | [10] 49.5 µM | [51] > 100 µM | [12] 40.5 µM | [14] 15.9 µM | [15] > 100 µM | [16] > 100 µM | [52] 19.9 µM | [53] 18.2 µM | [17] > 100 µM | [18] 35.3 µM | [19] 32.4 µM | [54] 57.9 µM | [21] 49 µM | [22] 46 µM | [23] > 100 µM | [24] 43.8 µM | [55] 35.8 µM | [28] 47.5 µM | [31] > 100 µM | [32] 21.6 µM | [33] 67.1 µM | [34] > 100 µM | [35] > 100 µM | [36] > 100 µM | [38] 23.6 µM | [39] > 100 µM | [40] 32.1 µM | [45] 63.4 µM | [46] > 100 µM | [47] > 100 µM | [49] 72.9 µM | [50] 30.3 µM | [58] 3.38 µM
25.8 µM: [13]
